Experimental data reported in patent publication US20070265164A1, “Active Substances for Increasing Pathogenic Defense in Plants and Methods for the Detection Thereof” (Bayer Cropscience GmbH, priority 2004, published 2007).

Assays:
Assay type in all cases: in vivo
[1] = tested on: Contig2990_at, Chitinase (EC 3.2.1.14); assay: GEP, barley DNA chip, probe set 5.1; conditions: Hordeum vulgare, topical, 6 h, read-out: Expression value, 5.1 Contig2990_at
Method: (§1) Barley plants (cv. Baronesse) were grown in compost-filled pots (diameter: 10 cm) for 10 days in a controlled-environment cabinet under defined light, humidity and temperature conditions (white light, 70% atmospheric humidity, 24° C.). At the time of spray application, the seedlings were approximately 15 cm in size. The test substances selected in this example were molecules which differ markedly in their structure and which have a well documented pronounced safener effect, and other molecules which are known from the literature to have an effect on plant stress and pathogen tolerance (Table 1). The substances were prepared as stock solutions in DMSO (dimethyl sulfoxide) at c=10 mg/ml). This was used for preparing dilutions in water supplemented with 0.2% Agrotin (comprises polyvinyl alcohol, silicones, polysaccharides and pH regulators, manufacturer: Bayer CropScience AG, Monheim, Germany), as wetter, to give the application rates shown in the table. The amount of liquid for the spray application was 800 μl per pot, corresponding to 800 l/ha. For each 800 μl of spray mixture, 16 μl of EC premix: diacetone alcohol=1:6 were additionally added as formulation auxiliaries. The substances listed in Table 1 were applied to the leaves by means of a pneumatic spray pistol. Each substance was sprayed as 2 dosages, and all experiments were carried out as replicates (2 pots per substance). Sprayings with blank formulation without active ingredient were carried out as controls. After 6 hours, the leaves were harvested, frozen in liquid nitrogen and stored at −80° C. until further use. The labeled RNA probes for the DNA chip hybridization were prepared as described in the protocols (Expression Analysis, Technical Manual) from Affymetrix (Affymetrix Inc., 3380 Central Expressway, Santa Clara, Calif., USA). First, total RNA was isolated from in each case 500 mg of the harvested leaves. In each case 10 μg of total RNA was used for the first-strand and second-strand cDNA synthesis. The cDNA was amplified with T7 polymerase and simultaneously labeled with biotin-UTP. In each case, 20 μg of this biotinylated cDNA was employed for the hybridization of the barley genome array (Gene Chip Barleyl, order No.: 511012) from Affymetrix. This DNA microarray comprises DNA sequences of 22 840 genes which are composed of a total of 400 000 EST sequences. Thereafter, the DNA microarrays were washed in the Affymetrix Fluidics Station, stained with streptavidin/phycoerythrin (Molecular Probes, P/N S-866) and scanned with the matching Agilent Laser Scanner (Agilent Gene Array Scanner). The fluorescent data obtained were analyzed with the software Microarray Suite 5 from Affymetrix. After the quality had been checked, all DNA chip analyses were stored in a database. To determine the relative expression values for genes (induction factors, repression factors), test and control chips were compared with each other, and the scoring function set by the Affymetrix software was used as the basis. The 2 biological replications of one experiment were compared in each case with 2 control chips (blank formulation), and the 4 expression values obtained for each gene were used for calculating the median. These medians are shown in the results tables as induction factors. Similarity comparisons of expression profiles from different experiments and cluster analyses were carried out using the software GeneMaths 1.5 from Applied Maths (Applied Maths, Keistraat 120, 9830 Sint-Martens-Latem, Belgium).
(§2) Gene groups from specific metabolic pathways and signal transduction chains were put together by key word search in the annotations, of the genes, which were also provided by Affymetrix, and by Blast analyses (homology comparisons) of the DNA target sequences, i.e. of the positive sequence (identified on the basis of a modified expression profile) identified on the DNA chip, using gene sequences from other organisms, preferably plant organisms, with characterized functions. […]

[2] = tested on: Contig2326_s_at, 12-oxophytodienoic acid reductase; assay: GEP, barley DNA chip, probe set 1.18; conditions: Hordeum vulgare, topical, 6 h, read-out: Expression value, 1.18 Contig2326_s_at
Method: as §1, §2

[3] = tested on: Contig2088_s_at, Bowman-Birk type trypsin inhibitor; assay: GEP, barley DNA chip, probe set 2.1; conditions: Hordeum vulgare, topical, 6 h, read-out: Expression value, 2.1 Contig2088_s_at
Method: as §1, §2

[4] = tested on: Contig1737_at, Probable lipoxygenase; assay: GEP, barley DNA chip, probe set 1.15; conditions: Hordeum vulgare, topical, 6 h, read-out: Expression value, 1.15 Contig1737_at
Method: as §1, §2

[5] = tested on: Contig2992_s_at, Chitinase (EC 3.2.1.14); assay: GEP, barley DNA chip, probe set 5.2; conditions: Hordeum vulgare, topical, 6 h, read-out: Expression value, 5.2 Contig2992_s_at
Method: as §1, §2

[6] = tested on: Contig12574_at, Putative lipoxygenase; assay: GEP, barley DNA chip, probe set 1.11; conditions: Hordeum vulgare, 6 h, read-out: Expression value, 1.11 Contig12574_at
Method: as §1, §2

[7] = tested on: HV_Ceb0020D05r2_s_at, Allene oxide cyclase; assay: GEP, barley DNA chip, probe set 1.6; conditions: Hordeum vulgare, topical, 6 h, read-out: Expression value, 1.6 HV_Ceb0020 D05r2_s_at
Method: as §1, §2

[8] = tested on: Contig6194_a_at, 12-oxophytodienoic acid reductase; assay: GEP, barley DNA chip, probe set 1.7; conditions: Hordeum vulgare, topical, 6 h, read-out: Expression value, 1.7 Contig6194_a_at
Method: as §1, §2

[9] = tested on: Contig5146_at, Probable 12-oxophytodienoate reductase (EC 1.3.1.42); assay: GEP, barley DNA chip, probe set 1.4; conditions: Hordeum vulgare, topical, 6 h, read-out: Expression value, 1.4 Contig5146_at
Method: as §1, §2

[10] = tested on: Contig10030_at, Putative lipase homolog; assay: GEP, barley DNA chip, probe set 1.13; conditions: Hordeum vulgare, topical, 6 h, read-out: Expression value, 1.13 Contig10030_at
Method: as §1, §2

[11] = tested on: Contig2118_at, Peroxidase (EC 1.11.1.7), pathogen-induced; assay: GEP, barley DNA chip, probe set 4.1; conditions: Hordeum vulgare, topical, 6 h, read-out: Expression value, 4.1 Contig2118_at
Method: as §1, §2

[12] = tested on: Contig6611_at, Similar to lipases; assay: GEP, barley DNA chip, probe set 1.12; conditions: Hordeum vulgare, topical, 6 h, read-out: Expression value, 1.12 Contig6611_at
Method: as §1, §2

CCOC(=O)C1=NOC(c2ccccc2)(c2ccccc2)C1 [S3, Isoxadifen-ethyl]
fold induction at 150 g/ha [1]: 2.77 | fold induction at 150 g/ha [2]: 1 | fold induction at 150 g/ha [3]: 4.26 | fold induction at 150 g/ha [4]: 1 | fold induction at 150 g/ha [5]: 2.19 | fold induction at 150 g/ha [6]: 2.81 | fold induction at 150 g/ha [7]: 3.68 | fold induction at 150 g/ha [8]: 3.25 | fold induction at 150 g/ha [9]: 4.5 | fold induction at 150 g/ha [10]: 2.25 | fold induction at 150 g/ha [11]: 4.86 | fold induction at 150 g/ha [12]: 2.41
